Test results reported in patent US20100062517A1, “In situ production of microbial pigments for metal and actinide immobilization” (priority 2008, published 2010).

What was measured:
4-HPPD = assay: Pigment production in pure cultures of soil isolates with sulcotrione; type: cell-based, soil isolates (bacteria); conditions: sulcotrione 18 μM, LBSM with tyrosine 1 g/l, absorbance 400 nm, relative to no inhibitor
Source text: Initial characterization of pigment included intensity of coloration and diffusion through agar media. Dark black non-diffusive pigments are indicative of DOPA melanin whereas reddish brown diffusive pigments are more likely pyomelanin. The chemical sulcotrione (Zeneca Agrochemicals) was used as a specific competitive inhibitor of 4-HPPD, the enzyme required for pyomelanin production. Methods incorporated sulcotrione to determine if pigment production was a result of 4-HPPD. Pure cultures of soil isolates were grown in LBSM and tyrosine (1 g/l) was supplemented to promote pigment production. Sulcotrione (18 μM) was added prior to pigmentation in order to differentiate pyomelanin production from other pigments that may be produced. Pigment production was quantified spectrophotometrically (400 nm) in cell free culture fluid. Controls for comparison were without tyrosine or without sulcotrione.

Tims Branch soil = assay: Field soil columns treated with tyrosine; set-up: species or system indigenous soil bacteria
Procedure: Additionally, the following soil properties were analyzed: percent organic matter by loss-on-ignition at a temperature of 375° C. and pH was determined from a 1:1 mineral/water equilibration solution. Also, total concentration of U in a homogenized soil sample was determined by a total microwave digestion of 0.6 g of homogenized soil material with concentrated acids (10 ml of HNO3, 4 ml of H2SO4, and 2 ml of HCl). The resulting extract solution was analyzed by ICP-MS. Changes in the organic content of soils due to pyomelanin production were also determined by spectrophotometric absorbance (400 nm) of particle free supernatants and Fourier transform infrared (FTIR) spectroscopy. Soil samples were removed (5-10 g/column) 28 days after treatment addition for pore water analysis. Optical density was determined for centrifuged soil to determine the degree of pigmentation resulting from tyrosine amendments. Dried pigments from soil effluents (60° C.) were then further characterized using FTIR spectroscopy and compared to that of pure tyrosine and dihydroxyphenylalanine (DOPA) melanin (Aldrich Chemicals). […] All samples were analyzed using a ThermoElectron Smart Orbit diamond single bounce attenuated total reflectance accessory. […] During field incubation rainfall was measured at 12.1 cm. […] Samples were processed the next day and analyzed for metals and pH.

SMILES	Pigment production in bacterial cultures (4-HPPD)	U in pore water compared to controls (Tims Branch soil; 30 days after treatment, 10, 30 and 50 cm depths)	Duration of U immobilization (Tims Branch soil; one-time addition of tyrosine to soil)
CS(=O)(=O)c1ccc(C(=O)C2C(=O)CCCC2=O)c(Cl)c1 [sulcotrione]	halted	–	–
N[C@@H](Cc1ccc(O)cc1)C(=O)O [tyrosine]	–	significantly decreased	at least 13 months
